Literature values as cited in PMC6724535 (Journal of molecular biology, 2019).

Columns and labels:
E. coli expressing TetX = E. coli expressing TetX vs wild-type E. coli
[1] = tested on: E. coli expressing TetK, TetA, TetB, and TetM
[2] = tested on: E. coli expressing AACs, ANTs, APHs and 16S rRNA ribosomal methyltransferases

For `CN(C)[C@@H]1C(O)=C(C(N)=O)C(=O)[C@@]2(O)C(O)=C3C(=O)c4c(O)c(NC(=O)CN5CCCC5)cc(F)c4C[C@H]3C[C@@H]12` [eravacycline], the “increase in minimal inhibitory concentration (MIC) relative to wild-type E. coli” value (E. coli expressing TetX) is given as 64 fold and the antibacterial activity [1] is given as “maintained nearly full antibacterial activity”.

For jessenipeptin, the “amoebicidal activity IC50” value (D. discoideum) is listed as 4 µg/mL.

For `CN[C@@H]1[C@@H](O)[C@@H](O[C@@H]2[C@@H](O)[C@H](O[C@H]3OC(CNCCO)=CC[C@H]3N)[C@@H](N)C[C@H]2NC(=O)[C@@H](O)CCN)OC[C@]1(C)O` [plazomicin], the “activity against E. coli expressing aminoglycoside inactivating enzymes” value ([2]; majority of canonical AACs, ANTs, and APHs) is listed as “maintain activity” and the “antibacterial activity with ribosomal methyltransferases” value ([2]; some plasmid-encoded 16S rRNA ribosomal methyltransferases) is listed as “completely abolish”.
